Experimental data: ChEMBL document CHEMBL2396595, “New eudesmane sesquiterpenes from Alpinia oxyphylla and determination of their inhibitory effects on microglia” (Bioorg Med Chem Lett, 2013)
Active and inactive are the calls of the source. The calls are words filed in the database; no cut-off is given here.

Experiments:
BV-2 [1] = assay: Neuroprotective activity in mouse BV2 cells assessed as inhibition of LPS-induced nitric oxide production at maximum non-toxic concentration treated 1 hr before LPS addition measured after 24 hrs by colorimetric analysis; type: functional, cell-based
[2] = Cytotoxicity against mouse BV2 cells assessed as maximum non-toxic concentration after 24 hrs by MTT assay; type: cell-based, BV-2
BV-2 [3] = assay: Neuroprotective activity in mouse BV2 cells assessed as increase of LPS-induced TNFalpha production at maximum non-toxic concentration treated 1 hr before LPS addition measured after 24 hrs by ELISA; type: functional, cell-based
BV-2 [4] = assay: Neuroprotective activity in mouse BV2 cells assessed as increase of LPS-induced nitric oxide production at maximum non-toxic concentration treated 1 hr before LPS addition measured after 24 hrs by colorimetric analysis; type: functional, cell-based
BV-2 [5] = assay: Neuroprotective activity in mouse BV2 cells assessed as inhibition of LPS-induced TNFalpha production at maximum non-toxic concentration treated 1 hr before LPS addition measured after 24 hrs by ELISA; type: functional, cell-based

Compound	inhibition (BV-2 [1])	MNTC at 24 h [2]	Activity (BV-2 [3])	Activity (BV-2 [4])	inhibition (BV-2 [5])
CC(C)[C@@H]1CCC(=O)C2=C1[C@H](O)[C@](C)(O)CC2 [OXYPHYLLENODIOL A]	inactive	100 µM	–	–	–
COc1ccc2c(c1)c(CC(=O)O)c(C)n2C(=O)c1ccc(Cl)cc1 [INDOMETHACIN]	–	10 µM	–	–	–
C=C(C)[C@@H]1CC(=O)C2=CC(=O)C[C@@H](C)[C@]2(C)C1	Active	0.1 µM	Active	–	–
Cc1ccc2c(c1O)[C@H](C(C)C)CCC2=O	Active	100 µM	–	–	–
N=C(N)NN [PIMAGEDINE]	–	1000 µM	–	–	–
CC1=CC(=O)C[C@@]2(C)C[C@H]3OC(=O)C(C)=C3C[C@H]12	inactive	100 µM	–	Active	–
C=C(C)[C@@H]1CCC2=C[C@@H](O)C[C@@H](C)[C@]2(C)C1 [BETA-NOOTKATOL]	Active	30 µM	–	–	–
C[C@@H]1CC(=O)C=C2CC[C@@H]([C@](C)(O)CO)C[C@]21C [(11S)-NOOTKATONE-11,12-DIOL]	inactive	30 µM	–	–	–
C[C@@]12CCC(=O)C=C1[C@@](C)(O)[C@H](O)CC2 [OXYPHYLLENONE A]	inactive	100 µM	–	–	Active
CC1=C2C=C(C(C)(O)CO)CC[C@]2(C)CCC1=O (stereo not given in full) [OXYPHYLLANENE F]	inactive	0.1 µM	–	–	–
CC(=O)C1=CC2=C(C)C(=O)CC[C@@]2(C)CC1	inactive	100 µM	–	Active	–
CC(C)[C@H]1CCC(=O)C2=C1[C@H](O)[C@](C)(O)CC2 [OXYPHYLLENODIOL B]	Active	1 µM	–	–	–
CC(=O)[C@H]1CC[C@@]2(C)CC(=O)C=C(C)[C@@]2(O)C1	inactive	100 µM	–	Active	–
C=C(C)[C@]1(O)CC[C@]2(C)CC(=O)C=C(C)[C@H]2C1	inactive	0.1 µM	Active	–	–
C=C(C)[C@@H]1CCC2=CC(=O)C[C@@H](C)[C@]2(C)C1 [NOOTKATONE]	inactive	0.1 µM	Active	–	–
Cc1ccc2c(c1)[C@H](C(C)C)CCC2=O [(4S)-10-NOR-CALAMENEN-10-ONE]	inactive	0.1 µM	–	Active	–
C[C@@]12CCC(=O)C=C1[C@](C)(O)[C@H](O)CC2 [OXYPHYLLENONE B]	inactive	10 µM	–	–	–
